Values of other authors as cited in patent US10905651B1, “Zeinmersome nanocarriers for drug delivery to the liver” (King Abdulaziz University, priority 2020, dated 2021).

Conditions: cited from earlier work

## CCCc1nc(C(C)(C)O)c(C(=O)O)n1Cc1ccc(-c2ccccc2-c2nnn[nH]2)cc1 [olmesartan]
Kobayashi et al. 2000
  oral bioavailability of olmesartan: 4.5%
Following IV administration
  volume of distribution (Vd): 15 to 25 L
